# Measurements as given in patent US20240252469A1, “Carnosine Analogs for Use in the Treatment of Metabolic Disorders” (priority 2021, published 2024).
# Tests used:
# [1] = system: C2C12 skeletal muscle cells; assay: Toxicity testing of carnosine esters (Calcein AM cell viability); assay type: cell-based; settings: 100 μM ester in GLT RPMI-1640 medium, 5 days culture, versus control medium
# Experimental: C2C12 muscle cell myotubes were cultured for 5 days in the following four culture media: a control RPMI-1640 medium; glucolipotoxic (GLT) RPMI-1640 medium (28 mM glucose, 200 μM palmitic acid and 200 μM oleic acid) supplemented with 100 μM of L-carnosine methyl ester; GLT RPMI-1640 medium supplemented with 100 μM of L-carnosine ethyl ester; and GLT RPMI-1640 medium supplemented with 100 μM of L-carnosine iso-propyl ester. Following culture, media were aspirated and cells washed 3 times in Krebs-Ringer buffer (KRB). A final concentration of 5 μM Calcein AM Cell Viability Dye (ThermoFischer) in KRB was loaded for 1 h before washing again with KRB. Cell viability was measured via fluorescence, with excitation and emission at 490 nm and 520 nm, respectively.
# [2] = system: C2C12 skeletal muscle cells; assay: Reactive species scavenging ability (DCFDA fluorescence); assay type: cell-based; settings: 100 μM ester for 1 h after 5 days culture in GLT RPMI-1640 media
# Experimental: C2C12 muscle cell myotubes were cultured for 5 days in standard RPMI-1640 tissue culture media or GLT RPMI-1640 media. Corresponding media were then replaced and supplemented independently with 100 μM of a carnosine ester (L-carnosine methyl ester, L-carnosine ethyl ester, and L-carnosine iso-propyl ester investigated) for 1 h. Non-supplemented standard and GLT RPMI-1640 media were also retained as controls. Cells were thereafter washed 3 times in KRB and 20 μM 2′,7′-dichlorofluorescein diacetate (DCFDA), a cell permeant fluorogenic dye that measures hydroxyl, peroxyl and other ROS, was loaded for 1 h. Reactive species detection was measured via fluorescence, with excitation at 495 nm and emission at 530 nm.
# INS-1 pancreatic β-cells = assay: Insulin secretion from INS-1 pancreatic β-cells (ELISA, normalised to cellular protein); assay type: cell-based; settings: 100 μM ester in GLT RPMI-1640 medium for 5 days; 2 h secretagogue cocktail stimulation
# Experimental: INS-1 pancreatic B-cells were cultured for 5 days in standard RPMI-1640 tissue culture media or GLT RPMI-1640 media. The media were either used without further supplementation (used as controls) or were independently supplemented with either 10 mM of L-carnosine or with 100 μM of a carnosine ester (L-carnosine methyl ester, L-carnosine ethyl ester, and L-carnosine iso-propyl ester investigated). INS-1 cells were then treated with KRB or KRB supplemented with secretagogue cocktail (13.5 mM glucose, 1 μM phorbol 12-myristate 13-acetate, 1 mM isobutyl-methylxanthine, 1 mM tolbutamide, 10 mM leucine, 10 mM glutamine) as a stimulant of insulin secretion for 2 h. Insulin secretion was determined by ELISA assay, with data normalised to cellular protein content.
# [3] = system: High fat-fed spontaneously diabetic mice; assay: Glucose tolerance test in an in vivo model of type-2 diabetes; settings: 45 mg/kg body weight/day in diet
# Experimental: High fat-fed spontaneously diabetic mice were used as an animal model of type-2 diabetes. A glucose tolerance test was performed on three sets of mice, wherein the mice were initially fasted for 6 h. A […] glucose solution was then administered to the three sets of mice in their drinking water and their blood glucose concentrations (mmol/L) monitored over a period of 2 h. The following three sets of mice were used in the study: • Non-diabetic, non-high fat-fed mice. • Spontaneously diabetic high fat-fed mice. • Spontaneously diabetic high fat-fed mice whose diet also included 45 mg/kg body weight/day of L-carnosine iso-propyl ester.
# Spontaneously diabetic high fat-fed mice were defined as mice which had been fed the following high fat diet from Research Diets: (60% fat; D12492). Non-diabetic, non-high fat-fed mice were used as a control and were fed the following low fat diet from Research Diets: (10% fat, D12450B). The body weights of the mice on the two different diets were measured throughout.
Structure (SMILES),cell viability [1],intracellular reactive species (GLT-associated reactive species levels) [2],insulin secretion in cells exposed to glucolipotoxicity (GLT) (INS-1 pancreatic β-cells),toxic effects on the animals ([3]; high fat-fed mice),"glucose tolerance ([3]; spontaneously diabetic high fat-fed mice, 6 h fast)",blood glucose concentrations at the end of the study (2 h) ([3]; versus high fat-fed mice only administered the high fat diet)
CCOC(=O)[C@H](Cc1cnc[nH]1)NC(=O)CCN [L-carnosine ethyl ester],non-toxic,return to control values,reverse glucolipotoxic inhibition of insulin secretion,–,–,–
CC(C)OC(=O)[C@H](Cc1cnc[nH]1)NC(=O)CCN [L-carnosine iso-propyl ester],non-toxic,return to control values,reverse glucolipotoxic inhibition of insulin secretion,no toxic effects,significantly improved glucose tolerance,significantly lower
COC(=O)[C@H](Cc1cnc[nH]1)NC(=O)CCN [L-carnosine methyl ester],non-toxic,return to control values,reverse glucolipotoxic inhibition of insulin secretion,–,–,–
